Data taken from patent US9556226B2, “Peptides with antifungal activity and methods of using the peptides” (THE BOARD OF TRUSTEES OF THE UNIVERSITY OF ARKANSAS, priority 2013, dated 2017).

Experiments:
CD1 mice [1] = assay: Immunogenicity in mice, serum dot blot for antibodies against the peptide; format: in vivo
Description: Small peptides have the potential to induce an immune response when used for therapeutic purposes. To examine this possibility, mice were injected once per month for four months with 10 mg/kg of the KM12 peptide either by intravenous, intramuscular, or intraperitoneal route. After the fifth month, the mice were euthanized and the serum collected and tested by dot blot analysis for antibodies directed against the KM12 peptide. For each route of injection, five CD1 mice were used. […] It is plausible that the smaller size of those peptides may not elicit an immune response, yet be effect as antifungals. Such studies are currently underway on KM23 and KM29.
(§1) Animal Studies: For the animal studies, CD-1 mice of 8-25 grams were injected with the antifungal peptides dissolved in either phosphate-buffered saline or 5% glucose. Peptide concentrations used for the injection of mice were chosen using a standard up-down protocol starting at 8 mg/kg. Peptides were injected into mice intravenously, intramuscularly, or intraperitoneally as indicated. The mice were closely monitored lbr signs of distress after injection. After two hours of continuous monitoring, the mice were evaluated daily for two weeks and necropsies performed after two weeks. For evaluating the immunogenicity of the peptides, mice were injected with peptides at a concentration of 10 mg/kg in 5% glucose. The routes of injection were intravenous, intramuscular, or intraperitoneal. Five mice were injected with the peptide per route of injection. The mice were injected with the same dose of peptide once per month for four months. The mice were monitored for signs of distress after each injection. At the end of the fifth month, the mice were euthanized by an overdose of anesthesia and the serum was collected from each mouse individually as assay for activity against the peptide using dot blots.

[2] = protein binding evaluation using bovine calf serum (disulfide bond stability); format: in vitro ADME
Source text: To alleviate that difficulty, two additional peptides were synthesized, KM23 and KM29. The KM23 peptide was identical in sequence to KM12 except the cysteine residues were removed resulting in a peptide with the sequence Y -K-R-K-F-F-K-R-K-Y (SEQ ID NO: 3). Since there were two phenylalanines at the center of this symmetrical peptide another peptide, designated KM29 was synthesized to yield the symmetric peptide Y-K-R-K-F-K-R-K-Y (SEQ ID NO: 4) with one phenylalanine at the center.

CD1 mice [3] = assay: Acute toxicity testing in CD1 mice (up-down protocol); format: in vivo; conditions: for signs observed on tested animals: IV
Description: To evaluate acute toxicity in animals, CD1 outbred mice were injected via tail vein with either KM12 or KM14 using a standard up-down concentration protocol and observed for any symptoms consistent with the toxicity of the peptides (Table 4). Mice were initially injected with KM12 or KM14 at a concentration of 8 mg/kg. […] Thus the KM12 peptide was deemed safe for animals at concentrations up to 10 mg/kg and the use of 5% glucose versus phosphate-buffered saline was deemed safer for administration to the animals. We will continue to evaluate acute toxicity with other KM peptides (i.e. KM23 and KM29) that show excellent promise as antifungal compounds. In addition, we plan to evaluate these peptides for treatment of superficial mucosal infections with Candida species.
as §1

CC(=O)N[C@@H](CSSC[C@H](NC(C)=O)C(=O)N[C@@H](Cc1ccccc1)C(=O)N[C@@H](CCCCN)C(=O)N[C@@H](CCCNC(=N)N)C(=O)N[C@@H](CCCCN)C(=O)N[C@@H](Cc1ccc(O)cc1)C(N)=O)C(=O)N[C@@H](Cc1ccccc1)C(=O)N[C@@H](CCCCN)C(=O)N[C@@H](CCCNC(=N)N)C(=O)N[C@@H](CCCCN)C(=O)N[C@@H](Cc1ccc(O)cc1)C(N)=O [KM12, Y-K-R-K-F-C-----C-F-K-R-K-Y]
mice displaying a weak immune response (antibodies against the peptide) (CD1 mice [1]; 10 mg/kg once per month for four months, intramuscular injection): 1/5
mice displaying an immune response (antibodies against the peptide) (CD1 mice [1]; 10 mg/kg once per month for four months, intraperitoneal injection): 0/5
mice showing a moderate immune response (antibodies against the peptide) (CD1 mice [1]; 10 mg/kg once per month for four months, intravenous injection): 1/5
immunogenicity (overall, in words) (CD1 mice [1]; CD1 mice, 10 mg/kg monthly, IV, IM or IP): weakly immunogenic
stability of the disulfide bond in bovine calf serum [2]: readily reduced
signs observed on tested animals (CD1 mice [3]; 8 mg/kg, in PBS, CD1 mice): no toxicity and None
signs observed on tested animals (CD1 mice [3]; 10 mg/kg, IM, IP, in 5% glucose, CD1 mice (n = 15)): no major toxicity and None
signs observed on tested animals (CD1 mice [3]; 10 mg/kg, in PBS, CD1 mice (n = 5)): None
signs observed on tested animals (CD1 mice [3]; 16 mg/kg, in 5% glucose, CD1 mice (n = 2)): Convulsion, no death
dosage deemed safe / well-tolerated in mice (CD1 mice [3]; intravenous, intramuscular or intraperitoneal route): up to 10 mg/kg
